Test system: not listed separately
Assay: Oral bioavailability in rat
Assay type: ADME, organism-based
Conditions: in vivo, read-out: Bioavailabiility

Work on `Cc1ccn2cc(-c3ccc(OCCCN4CCCCC4)cc3)nc2c1` yielded a bioavailability of 57%.

Test system: not listed separately
Assay: Half life in rat was tested
Assay type: ADME, organism-based
Conditions: in vivo

With `Cc1ccn2cc(-c3ccc(OCCCN4CCCCC4)cc3)nc2c1` the half-life was 5.2 h.

Target: T1, Histamine H3 receptor (Homo sapiens, UniProt Q9Y5N1)
Assay: Compound was tested for its binding affinity against human histamine H3 receptor
Conditions: not given

T1 sequence (Q9Y5N1 whole entry): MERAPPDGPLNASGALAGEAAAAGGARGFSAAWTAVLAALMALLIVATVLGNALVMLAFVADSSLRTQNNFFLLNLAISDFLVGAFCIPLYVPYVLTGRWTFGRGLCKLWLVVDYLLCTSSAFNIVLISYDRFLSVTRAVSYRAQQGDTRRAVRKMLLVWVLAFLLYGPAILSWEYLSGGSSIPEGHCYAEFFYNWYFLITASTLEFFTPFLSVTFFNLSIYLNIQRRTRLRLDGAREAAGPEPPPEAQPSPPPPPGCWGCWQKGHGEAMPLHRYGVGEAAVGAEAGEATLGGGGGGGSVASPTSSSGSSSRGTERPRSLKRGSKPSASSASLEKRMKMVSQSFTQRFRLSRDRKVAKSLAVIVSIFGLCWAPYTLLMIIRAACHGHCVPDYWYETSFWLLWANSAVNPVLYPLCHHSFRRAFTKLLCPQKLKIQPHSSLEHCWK

Work on `CCCCN(CCCC)CCCOc1ccc(-c2cn3cccc(C)c3n2)cc1` yielded a Ki of 4000 nM.

Target: T1, Histamine H3 receptor
Assay: Binding affinity for human histamine H3 receptor
Conditions: not given

Going from `Cc1ccn2cc(-c3ccc(C#CCCN4CCCCC4)cc3)nc2c1` to `Cc1ccn2cc(-c3ccc(CCCCN4CCCCC4)cc3)nc2c1`, the Ki rises from 7 nM to 17 nM (2.4-fold). The first binds more tightly here.

Compared with `Cc1cccn2cc(-c3ccc(OCCCN4CCOCC4)cc3)nc12`, `Cc1cccn2cc(-c3ccc(OCCCN4CCCCC4)cc3)nc12` is 27-fold lower in Ki: 80 nM for the first, 3 nM for the second. The second binds more tightly here.

First: Cc1cccn2cc(-c3ccc(OCCCn4ccnc4)cc3)nc12
Second: Cc1cccn2cc(-c3ccc(OCCCN(C)C)cc3)nc12
The Ki of the first is 77-fold higher: 1000 nM for the first, 13 nM for the second.

First: Cc1cccn2cc(-c3ccc(NC(=O)CCN4CCCCC4)cc3)nc12
Second: Cc1cccn2cc(-c3ccc(NCCCN4CCCCC4)cc3)nc12
The Ki of the first is 20-fold higher: 300 nM for the first, 15 nM for the second.

`c1ccn2cc(-c3ccc(OCCCN4CCCCC4)cc3)nc2c1` and `Cc1ccn2cc(-c3ccc(OCCCN4CCCCCC4)cc3)nc2c1` are the same in Ki: 6 nM for the first, 6 nM for the second.

Going from `Cc1cccn2cc(-c3ccc(NS(=O)(=O)CCCN4CCCCC4)cc3)nc12` to `Cc1cc(-c2cn3ccccc3n2)ccc1OCCCN1CCCCC1`, the Ki falls from 500 nM to 28 nM (18-fold).

Compared with `Cc1ccn2cc(-c3ccc(OCCCN4CCCC4)cc3)nc2c1`, `Cc1ccn2cc(-c3ccc(OCCCN4CCCCC4)cc3C)nc2c1` is 2.5-fold lower in Ki: 5 nM for the first, 2 nM for the second. The second binds more tightly here.

Going from `CCCCN(CCCC)CCCOc1ccc(-c2nc3c(C)cccn3c2C)cc1` to `CCCCN(CCCC)CCCOc1ccc(-c2cn3cccc([N+](=O)[O-])c3n2)cc1`, the Ki rises from 870 nM to 11000 nM (13-fold).

First: Cc1cccn2cc(-c3ccc(OCCCN(C(C)c4ccccc4)C(C)c4ccccc4)cc3)nc12 (configuration not stated)
Second: CCCN(CCC)CCCOc1ccc(-c2cn3cccc(C)c3n2)cc1
The Ki of the first is 93-fold higher: 4000 nM for the first, 43 nM for the second.

First: Cc1ccn2cc(-c3ccc(/C=C/CCN4CCCCC4)cc3)nc2c1
Second: COc1cc(-c2cn3ccc(C)cc3n2)ccc1OCCCN1CCCCC1
The Ki of the first is 3.1-fold lower: 22 nM for the first, 69 nM for the second.

Target: Histamine H3 receptor (Rattus norvegicus) (UniProt Q9QYN8)
Sequence (Q9QYN8 whole entry): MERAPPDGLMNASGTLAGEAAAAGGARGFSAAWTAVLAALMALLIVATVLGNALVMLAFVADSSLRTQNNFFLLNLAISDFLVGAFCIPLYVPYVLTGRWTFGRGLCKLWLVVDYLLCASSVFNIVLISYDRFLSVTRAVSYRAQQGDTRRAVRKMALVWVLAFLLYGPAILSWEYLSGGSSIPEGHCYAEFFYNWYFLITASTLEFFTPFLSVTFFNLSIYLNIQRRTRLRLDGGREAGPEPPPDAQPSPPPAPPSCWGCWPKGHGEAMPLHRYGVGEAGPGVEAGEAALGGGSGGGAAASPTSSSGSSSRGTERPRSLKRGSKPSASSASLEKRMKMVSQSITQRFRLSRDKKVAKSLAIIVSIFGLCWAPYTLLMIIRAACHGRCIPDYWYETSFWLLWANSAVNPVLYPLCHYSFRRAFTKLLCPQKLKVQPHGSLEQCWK
Assay: Ex-vivo effective dose required for rat histamine H3 receptor occupancy by the compound using [3H]R-alpha-methylhistamine upon subcutaneous administration
Conditions: not given

Going from `S=C(NC1CCCCC1)N1CCC(c2cnc[nH]2)CC1` to `Cc1ccn2cc(-c3ccc(OCCCN4CCCCC4)cc3)nc2c1`, the ED50 falls from 2 mg/kg to 0.2 mg/kg (10-fold).

Target: T2, Histamine H3 receptor (Rattus norvegicus, UniProt Q9QYN8)
T2 sequence (Q9QYN8 whole entry): as above
Assay: Antagonist activity for rat histamine H3 receptor was determined
Assay type: functional
Conditions: read-out: pA2 (converted)

For `Cc1ccn2cc(-c3ccc(OCCCN4CCCCC4)cc3)nc2c1`, the Kb was 4.68 nM.

Target: T2, Histamine H3 receptor
Assay: Compound was tested for its binding affinity for rat histamine H3 receptor
Conditions: not given

In the case of `Cc1ccn2cc(-c3ccc(OCCCN4CCCCC4)cc3)nc2c1`, the Ki is reported as 10 nM.
